From patent publication US9636336B2, “Aminoester derivatives” (CHIESI FARMACEUTICI S.p.A., priority 2015, dated 2017)
Where two headings read alike, the source gives them in different places.

Tests used:
[1] = biological target: Human M3 receptor membranes (Homo sapiens (Human), UniProt P20309); experiment: M3 Receptor radioligand binding assay
Description: M3 Receptor Radioligand Binding Assay:
The assay is carried out in 96-well polypropylene plates in a volume of 250 μl. […] The final assay concentration of DMSO is 0.5% (v/v). The plates are sealed and incubated for 2 h at room temperature on an orbital shaker (slow speed). Membranes are harvested onto 96-well unifilter GF/C filter plates pre-treated with 0.5% polyethyleneimine (v/v), using a filter manifold, washed four times with 200 μl of assay buffer. The plates are dried before addition of 50 μl of microscint-0, sealed then read in a Trilux Microbeta scintillation counter. IC50 values are determined from competition curves using a non-linear curve fitting program. Ki values are calculated from IC50 values by the Cheng and Prusoff equation.

[2] = biological target: Human recombinant PDE4B2 (Homo sapiens (Human), UniProt Q07343); experiment: PDE4B2 HTRF assay; type: biochemical
Sequence of Human recombinant PDE4B2 (Q07343 other isoform, or with tags, fused parts or gaps): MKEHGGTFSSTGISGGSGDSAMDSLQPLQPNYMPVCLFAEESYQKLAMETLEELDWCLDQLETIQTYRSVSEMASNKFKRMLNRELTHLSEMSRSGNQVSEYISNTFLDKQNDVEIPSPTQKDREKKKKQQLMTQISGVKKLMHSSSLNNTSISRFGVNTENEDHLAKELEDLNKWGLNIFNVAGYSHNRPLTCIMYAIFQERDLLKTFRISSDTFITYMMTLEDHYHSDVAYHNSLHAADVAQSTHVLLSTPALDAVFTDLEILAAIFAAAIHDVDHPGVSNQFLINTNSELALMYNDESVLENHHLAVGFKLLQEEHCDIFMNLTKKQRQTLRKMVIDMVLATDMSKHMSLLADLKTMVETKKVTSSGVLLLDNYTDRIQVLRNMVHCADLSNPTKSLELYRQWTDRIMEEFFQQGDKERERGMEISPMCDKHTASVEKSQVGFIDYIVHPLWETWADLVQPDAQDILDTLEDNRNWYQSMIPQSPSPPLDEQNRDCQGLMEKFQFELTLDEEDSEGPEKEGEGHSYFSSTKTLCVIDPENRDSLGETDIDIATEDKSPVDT
Description: PDE4B2 activity is detected using the LANCE Ultra cAMP homogeneous time resolved fluorescence resonance energy transfer (TR-FRET) assay from Perkin Elmer. The assay is based on the competition between the europium (Eu) chelate-labeled cAMP tracer and sample cAMP for binding sites on cAMP-specific monoclonal antibodies (mAb) labelled with the ULight™ dye. The assay is carried out in 384-well low volume plates in a volume of 10 μl. Human recombinant PDE4B2 (80 pM) is incubated for 2 h with 3 nM cAMP in buffer containing 1×HBSS, 5 mM HEPES, 3 mM MgCl2, 0.1% BSA, pH 7.4 with or without test compounds. The enzymatic reactions are efficiently stopped by the addition of 500 μM IBMX present in the combined Stop/Detection buffer containing europium (Eu) chelate-labeled cAMP tracer and cAMP-specific monoclonal antibodies (mAb) labelled with the ULight™ dye. […] IC50 values are determined from competition curves using a non-linear curve fitting program.

[3] = M3 Receptor radioligand binding assay, read-out: M3 IC50 activity
[4] = PDE4B2 HTRF assay, read-out: PDE4B2 IC50 activity

Sequence of Human M3 receptor membranes (P20309 whole entry): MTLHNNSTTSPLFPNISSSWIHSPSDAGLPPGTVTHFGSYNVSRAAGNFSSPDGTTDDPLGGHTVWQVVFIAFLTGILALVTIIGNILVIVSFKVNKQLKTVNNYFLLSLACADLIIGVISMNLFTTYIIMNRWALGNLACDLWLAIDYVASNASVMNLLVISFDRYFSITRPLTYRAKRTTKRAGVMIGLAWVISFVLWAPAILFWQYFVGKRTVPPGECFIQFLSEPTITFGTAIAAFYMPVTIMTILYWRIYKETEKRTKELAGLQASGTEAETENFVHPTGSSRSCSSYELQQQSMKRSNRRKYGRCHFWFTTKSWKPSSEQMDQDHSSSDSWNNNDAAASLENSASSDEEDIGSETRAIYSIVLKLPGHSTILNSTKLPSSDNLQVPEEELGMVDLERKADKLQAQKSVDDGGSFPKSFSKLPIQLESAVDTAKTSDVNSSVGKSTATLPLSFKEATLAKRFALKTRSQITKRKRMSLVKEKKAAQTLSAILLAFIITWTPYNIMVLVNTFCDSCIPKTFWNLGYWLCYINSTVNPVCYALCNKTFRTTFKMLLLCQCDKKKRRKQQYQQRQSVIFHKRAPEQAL

`COc1ccc([C@H](Cc2c(Cl)c[n+]([O-])cc2Cl)OC(=O)c2ccc(CNC(C(=O)OCC3(C)CCN(C)CC3)c3ccccc3)s2)cc1OC` (mixture of isomers) [Example 2, [(1S)-2-(3,5-dichloro-1-oxido-pyridin-1-ium-4-yl)-1-(3,4-dimethoxyphenyl)ethyl]5-[[[2-[(1,4-dimethyl-4-piperidyl)methoxy]-2-oxo-1-phenyl-ethyl]amino]methyl]thiophene-2-carboxylate] showed an IC50 [1, 3] of 10 to 100 nM and an IC50 [2, 4] of 1 to 10 nM.

Work on `COc1ccc([C@H](Cc2c(Cl)c[n+]([O-])cc2Cl)OC(=O)c2ccc(CNC(CO)(C(=O)OCC3CCN(C)CC3)c3cccs3)s2)cc1OC` (mixture of isomers) [Example 37, [(1S)-2-(3,5-dichloro-1-oxido-pyridin-1-ium-4-yl)-1-(3,4-dimethoxyphenyl)ethyl]5-[[[1-(hydroxymethyl)-2-[(1-methyl-4-piperidyl)methoxy]-2-oxo-1-(2-thienyl)ethyl]amino]methyl]thiophene-2-carboxylate] yielded an IC50 [1, 3] of 1 to 10 nM and an IC50 [2, 4] of under 1 nM.

`CN1CCC(COC(=O)C(NCc2ccc(C(=O)O[C@@H](Cc3c(Cl)c[n+]([O-])cc3Cl)c3ccc(OC(F)F)c(OCC4CC4)c3)s2)c2cccc(O)c2)CC1` (mixture of isomers) [Example 46, [(1S)-1-[3-(cyclopropylmethoxy)-4-(difluoromethoxy)phenyl]-2-(3,5-dichloro-1-oxido-pyridin-1-ium-4-yl)ethyl]5-[[[1-(3-hydroxyphenyl)-2-[(1-methyl-4-piperidyl)methoxy]-2-oxo-ethyl]amino]methyl]thiophene-2-carboxylate] showed an IC50 [1, 3] of 1 to 10 nM and an IC50 [2, 4] of 1 to 10 nM.

`COc1ccc([C@H](Cc2c(Cl)c[n+]([O-])cc2Cl)OC(=O)c2ccc(CNC(C(=O)OCC3CCN(C(C)C)CC3)c3ccccc3)s2)cc1OC` (single isomer, unassigned) [Example 42] showed an IC50 [1, 3] of 10 to 100 nM and an IC50 [2, 4] of 1 to 10 nM.

`COc1ccc([C@H](Cc2c(Cl)c[n+]([O-])cc2Cl)OC(=O)c2ccc(CNCC(O)(C(=O)OCC3CCN(C)CC3)c3cccs3)s2)cc1OC` (stereo partly drawn) [Example 1, [(1S)-2-(3,5-dichloro-1-oxido-pyridin-1-ium-4-yl)-1-(3,4-dimethoxyphenyl)ethyl]5-[[[2-hydroxy-3-[(1-methyl-4-piperidyl)methoxy]-3-oxo-2-(2-thienyl)propyl]amino]methyl]-thiophene-2-carboxylate] gave an IC50 [1] of 10 to 100 nM and an IC50 [2] of 1 to 10 nM.

`COc1ccc([C@H](Cc2c(Cl)c[n+]([O-])cc2Cl)OC(=O)c2ccc(CNC(C(=O)OCC3(F)CCN(C)CC3)c3ccccc3)s2)cc1OC` (stereo partly drawn) [Example 3, [(1S)-2-(3,5-dichloro-1-oxido-pyridin-1-ium-4-yl)-1-(3,4-dimethoxyphenyl)ethyl] 5-[[[2-[(4-fluoro-1-methyl-4-piperidyl)methoxy]-2-oxo-1-phenyl-ethyl]amino]methyl]thiophene-2-carboxylate] gave an IC50 [2, 4] of 1 to 10 nM.

Work on `COc1ccc(C(Cc2c(Cl)c[n+]([O-])cc2Cl)OC(=O)c2ccc(CNC(C(=O)OCC3CCN(C)CC3)c3ccccc3)s2)cc1OC1CCCC1` (stereo not shown) [Example 5, [1-[3-(cyclopentoxy)-4-methoxy-phenyl]-2-(3,5-dichloro-1-oxido-pyridin-1-ium-4-yl)ethyl] 5-[[[2-[(1-methyl-4-piperidyl)methoxy]-2-oxo-1-phenyl-ethyl]amino]methyl]thiophene-2-carboxylate] yielded an IC50 [1, 3] of 1 to 10 nM and an IC50 [2, 4] of 1 to 10 nM.

`COc1ccc([C@H](Cc2c(Cl)c[n+]([O-])cc2Cl)OC(=O)c2ccc(CNCC(C(=O)OCC3CCN(C)CC3)c3ccccc3)s2)cc1OC` (stereo partly drawn) [Example 7, [(1S)-2-(3,5-dichloro-1-oxido-pyridin-1-ium-4-yl)-1-(3,4-dimethoxyphenyl)ethyl]5-[[[3-[(1-methyl-4-piperidyl)methoxy]-3-oxo-2-phenyl-propyl]amino]methyl]thiophene-2-carboxylate] gave an IC50 [1, 3] of 10 to 100 nM and an IC50 [2, 4] of 1 to 10 nM.

`COc1ccc([C@H](Cc2c(Cl)c[n+]([O-])cc2Cl)OC(=O)c2ccc(CNC(C(=O)OCC3CCN(C)CC3)C3CCCCC3)s2)cc1OC` (stereo partly drawn) [Example 9, [(1S)-2-(3,5-dichloro-1-oxido-pyridin-1-ium-4-yl)-1-(3,4-dimethoxyphenyl)ethyl]5-[[[1-cyclohexyl-2-[(1-methyl-4-piperidyl)methoxy]-2-oxo-ethyl]amino]methyl]thiophene-2-carboxylate] was tested, and the IC50 [1, 3] was 10 to 100 nM and the IC50 ([2]; read-out: PDE4B2 IC50 activity) was 1 to 10 nM.

With `COc1ccc([C@H](Cc2c(Cl)c[n+]([O-])cc2Cl)OC(=O)c2ccc(CNC(C(=O)OC[C@@H]3CCCN(C)C3)c3ccccc3)s2)cc1OC` (stereo partly drawn) [Example 14, [(1S)-2-(3,5-dichloro-1-oxido-pyridin-1-ium-4-yl)-1-(3,4-dimethoxyphenyl)ethyl]5-[[[2-[[(3R)-1-methyl-3-piperidyl]methoxy]-2-oxo-1-phenyl-ethyl]amino]methyl]thiophene-2-carboxylate] the IC50 [1, 3] was 1 to 10 nM and the IC50 [2, 4] was 1 to 10 nM.

`COc1ccc([C@H](Cc2c(Cl)c[n+]([O-])cc2Cl)OC(=O)c2ccc(CNC(C(=O)OC[C@@H]3CCN(C)C3)c3ccccc3)s2)cc1OC` (stereo partly drawn) [Example 17, [(1S)-2-(3,5-dichloro-1-oxido-pyridin-1-ium-4-yl)-1-(3,4-dimethoxyphenyl)ethyl] 5-[[[2-[[(3R)-1-methylpyrrolidin-3-yl]methoxy]-2-oxo-1-phenyl-ethyl]amino]methyl]thiophene-2-carboxylate] showed an IC50 [1, 3] of 1 to 10 nM and an IC50 [2, 4] of 1 to 10 nM.

`COc1ccc([C@H](Cc2c(Cl)c[n+]([O-])cc2Cl)OC(=O)c2ccc(CNC(C(=O)OC[C@H]3CCN(C)C3)c3ccccc3)s2)cc1OC` (stereo partly drawn) [Example 18, [(1S)-2-(3,5-dichloro-1-oxido-pyridin-1-ium-4-yl)-1-(3,4-dimethoxyphenyl)ethyl] 5-[[[2-[[(3S)-1-methylpyrrolidin-3-yl]methoxy]-2-oxo-1-phenyl-ethyl]amino]methyl]thiophene-2-carboxylate] showed an IC50 [1, 3] of 1 to 10 nM and an IC50 [2, 4] of 1 to 10 nM.

For `CCN1CCC(COC(=O)C(NCc2ccc(C(=O)O[C@@H](Cc3c(Cl)c[n+]([O-])cc3Cl)c3ccc(OC)c(OC)c3)s2)c2ccccc2)CC1` (stereo partly shown) [Example 19], the IC50 [2, 4] was under 1 nM.

For `COc1ccc([C@H](Cc2c(Cl)c[n+]([O-])cc2Cl)OC(=O)c2ccc(CNC(C(=O)OCCN3CCCC3)c3ccccc3)s2)cc1OC` (stereo partly drawn) [Example 21, [(1S)-2-(3,5-dichloro-1-oxido-pyridin-1-ium-4-yl)-1-(3,4-dimethoxyphenyl)ethyl] 5-[[[2-oxo-1-phenyl-2-(2-pyrrolidin-1-ylethoxy)ethyl]amino]methyl]thiophene-2-carboxylate], the IC50 [2, 4] was 1 to 10 nM.

In the case of `COc1ccc([C@H](Cc2c(Cl)c[n+]([O-])cc2Cl)OC(=O)c2ccc(CNC(C(=O)OCC3CN(C)C3)c3ccccc3)s2)cc1OC` (stereo partly drawn) [Example 25, [(1S)-2-(3,5-dichloro-1-oxido-pyridin-1-ium-4-yl)-1-(3,4-dimethoxyphenyl)ethyl] 5-[[[2-[(1-methylazetidin-3-yl)methoxy]-2-oxo-1-phenyl-ethyl]amino]methyl]thiophene-2-carboxylate], the IC50 [1, 3] is reported as 1 to 10 nM and the IC50 [2, 4] is reported as 1 to 10 nM.

`COc1ccc([C@H](Cc2c(Cl)c[n+]([O-])cc2Cl)OC(=O)c2ccc(CNC(C(=O)OC[C@H]3CN(C)CCN3C)c3ccccc3)s2)cc1OC` (stereo partly drawn) [Example 29, [(1S)-2-(3,5-dichloro-1-oxido-pyridin-1-ium-4-yl)-1-(3,4-dimethoxyphenyl)ethyl] 5-[[[2-[[(2R)-1,4-dimethylpiperazin-2-yl]methoxy]-2-oxo-1-phenyl-ethyl]amino]methyl]thiophene-2-carboxylate] was tested, and the IC50 [1, 3] was 10 to 100 nM and the IC50 [2, 4] was 1 to 10 nM.

`COc1ccc([C@H](Cc2c(Cl)c[n+]([O-])cc2Cl)OC(=O)c2ccc(CNC(C(=O)OCC3CCCCN3C)c3ccccc3)s2)cc1OC` (stereo partly drawn) [Example 31, [(1S)-2-(3,5-dichloro-1-oxido-pyridin-1-ium-4-yl)-1-(3,4-dimethoxyphenyl)ethyl] 5-[[[2-[(1-methyl-2-piperidyl)methoxy]-2-oxo-1-phenyl-ethyl]amino]methyl]thiophene-2-carboxylate] gave an IC50 [1, 3] of 10 to 100 nM and an IC50 [2, 4] of 1 to 10 nM.

Work on `COc1ccc([C@H](Cc2c(Cl)c[n+]([O-])cc2Cl)OC(=O)c2ccc(CNC(CO)(C(=O)OC[C@@H]3CCN(C)C3)c3ccccc3)s2)cc1OC` (stereo partly drawn) [Example 116, [(1S)-2-(3,5-dichloro-1-oxido-pyridin-1-ium-4-yl)-1-(3,4-dimethoxyphenyl)ethyl] 5-[[[1-(hydroxymethyl)-2-[[(3R)-1-methylpyrrolidin-3-yl]methoxy]-2-oxo-1-phenyl-ethyl]amino]methyl]thiophene-2-carboxylate] yielded an IC50 [2, 4] of 1 to 10 nM.

Compound `COc1ccc([C@H](Cc2c(Cl)c[n+]([O-])cc2Cl)OC(=O)c2ccc(CNC(C(=O)OCC3CCN(C)CC3)c3ccccc3OC)s2)cc1OC` (stereo partly shown) [Example 118] has an IC50 [2, 4] of under 1 nM.

In the case of `CCOc1cc(C(Cc2c(Cl)c[n+]([O-])cc2Cl)OC(=O)c2ccc(CNC(C(=O)OCC3CCN(C)CC3)c3cccc(O)c3)s2)ccc1OC` (stereo not shown) [Example 120], the IC50 [2, 4] is reported as under 1 nM.
